The values that follow come from ChEMBL document CHEMBL1133414, “Bifunctional alkylating agents derived from duocarmycin SA: potent antitumor activity with altered sequence selectivity” (Bioorg Med Chem Lett, 2000).

Molecules are shown by their SMILES.

The test relates to L1210. The test can be described thus: In vitro cytotoxicity against L1210 cell line. The test is classed as functional, cell-based. Particulars: Mus musculus.
In general, IC50 refers to the concentration that inhibits the measured activity by half. `COC(=O)c1cc2c([nH]1)C(=O)C=C1N(C(=O)c3cc4c([nH]3)C(=O)C=C3N(C(=O)OC(C)(C)C)C[C@H]5C[C@]345)C[C@@H]3C[C@@]123` showed an IC50 of 0.04 nM. To `COC(=O)c1cc2c([nH]1)C(=O)C=C1N(C(=O)c3cc4c([nH]3)C(=O)C=C3N(C(=O)OC(C)(C)C)C[C@H]5C[C@]345)C[C@H]3C[C@]123` belongs 0.003 nM; to `COC(=O)c1cc2c([nH]1)C(=O)C=C1N(C(=O)c3cc4cc(OC)c(OC)c(OC)c4[nH]3)C[C@@H]3C[C@@]123`, 0.1 nM; to `COC(=O)c1cc2c([nH]1)C(=O)C=C1N(C(=O)c3cc4c([nH]3)C(=O)C=C3N(C(=O)OC(C)(C)C)C[C@@H]5C[C@@]345)C[C@@H]3C[C@@]123`, 0.05 nM. In turn, `COC(=O)c1cc2c([nH]1)C(=O)C=C1N(C(=O)c3cc4cc(OC)c(OC)c(OC)c4[nH]3)C[C@H]3C[C@]123` [DUOCARMYCIN] showed an IC50 of 0.01 nM. To `COC(=O)c1cc2c([nH]1)C(=O)C=C1N(C(=O)c3cc4c([nH]3)C(=O)C=C3N(C(=O)OC(C)(C)C)C[C@@H]5C[C@@]345)C[C@H]3C[C@]123` (mixture of isomers) belongs 0.005 nM.
